One test has as its target Human plasma kallikrein (Homo sapiens (Human), UniProt P03952). The experiment in a line: Determination of the IC50 for Plasma Kallikrein. It counts as biochemical. To be noted: read-out: IC50 (human PKal). As for the experimental part:
Human plasma kallikrein (Protogen) was incubated at 37° C. with the fluorogenic substrate H-DPro-Phe-Arg-AFC and various concentrations of the test compound. Residual enzyme activity (initial rate of reaction) was determined by measuring the change in optical absorbance at 410 nm and the IC50 value for the test compound was determined.

Another test has as its target Human KLK1 (Homo sapiens (Human), UniProt P06870). Description: Determination of the IC50 for KLK1. It counts as biochemical. To be noted: 37° C., fluorogenic substrate H-DVal-Leu-Arg-AFC. In short, it runs like this:
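KLK1 inhibition was measured in vitro following standard published methods. Human KLK1 (Callbiochem) was incubated at 37° C. with the fluorogenic substrate H-DVal-Leu-Arg-AFC in the presence of a range of test compound concentrations. Residual enzyme activity, taken as the initial reaction rate, was followed by the change in optical absorbance at 410 nm, and IC50 values were derived.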

Setting [1] is: 37° C., fluorogenic substrate H-DPro-Phe-Arg-AFC.

pIC50: −log10 of the molar value. Like-named read-outs stand apart in the source and are kept apart here.

Human KLK1, sequence (P06870 25-262): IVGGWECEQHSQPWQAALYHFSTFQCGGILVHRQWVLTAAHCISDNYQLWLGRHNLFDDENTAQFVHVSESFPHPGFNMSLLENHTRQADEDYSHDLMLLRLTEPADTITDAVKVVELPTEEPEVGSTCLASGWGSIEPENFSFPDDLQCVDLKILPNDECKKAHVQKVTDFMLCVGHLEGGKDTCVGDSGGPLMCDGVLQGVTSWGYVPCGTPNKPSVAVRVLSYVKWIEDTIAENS
Human plasma kallikrein, sequence (P03952 391-638): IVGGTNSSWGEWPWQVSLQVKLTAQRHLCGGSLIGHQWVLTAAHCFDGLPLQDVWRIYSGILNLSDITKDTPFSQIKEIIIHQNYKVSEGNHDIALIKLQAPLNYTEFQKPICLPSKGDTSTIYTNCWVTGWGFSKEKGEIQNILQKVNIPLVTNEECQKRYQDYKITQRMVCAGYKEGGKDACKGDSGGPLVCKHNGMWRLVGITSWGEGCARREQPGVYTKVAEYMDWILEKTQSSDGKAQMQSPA
Human plasma kallikrein, sequence (P03952 20-390 partner): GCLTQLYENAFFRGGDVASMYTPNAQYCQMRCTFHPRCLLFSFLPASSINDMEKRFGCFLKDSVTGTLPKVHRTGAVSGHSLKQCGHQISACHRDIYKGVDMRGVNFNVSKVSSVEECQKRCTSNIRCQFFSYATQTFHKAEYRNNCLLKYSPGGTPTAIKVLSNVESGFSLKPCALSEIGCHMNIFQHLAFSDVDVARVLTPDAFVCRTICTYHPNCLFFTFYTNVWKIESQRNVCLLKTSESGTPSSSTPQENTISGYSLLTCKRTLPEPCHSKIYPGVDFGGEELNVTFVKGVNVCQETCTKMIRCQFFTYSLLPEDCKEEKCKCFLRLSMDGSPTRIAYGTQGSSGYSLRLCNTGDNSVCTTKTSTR

For the molecule `Cc1cc(C(=O)NCc2ccc([C@H](C)N)cc2)c(C)n1Cc1csc(-c2ccccc2)n1` [Example 51, 2,5-Dimethyl-1-(2-phenyl-thiazol-4-ylmethyl)-1H-pyrrole-3-carboxylic acid-4-((S)-1-amino-ethyl)-benzylamide], the pIC50 (usually −log10 of the IC50, conventionally taken in molar units) at Human plasma kallikrein (setting [1]) is 6.47; on Human KLK1, under 5.00.
As to `Cc1cc(C(=O)NCc2ccc(CN)cc2)c(C)n1Cc1cccc(N2CCOCC2)c1` [Example 73, 2,5-Dimethyl-1-(3-morpholin-4-yl-benzyl)-1H-pyrrole-3-carboxylic acid 4-aminomethyl-benzylamide], the results for the pIC50 at Human plasma kallikrein (setting [1]) and against Human KLK1 were 5.12 and under 5.00, respectively.
Take `Cc1c(C(=O)NCc2ccc(CN)cc2)ccn1Cc1csc(-c2ccccc2)n1` [Example 25, 2-Methyl-1-(2-phenyl-thiazol-4-ylmethyl)-1H-pyrrole-3-carboxylic acid 4-aminomethyl-benzylamide]: the pIC50 was 5.88 at Human plasma kallikrein (setting [1]) and under 5.00 at Human KLK1.
For `Cc1cc(C(=O)NCc2ccc(CN)cc2)c(C)n1Cc1ccc(-c2ccccc2)cc1` [Example 70, 1-Biphenyl-4-ylmethyl-2,5-dimethyl-1H-pyrrole-3-carboxylic acid 4-aminomethyl-benzylamide], the pIC50 is 5.34 on Human plasma kallikrein (setting [1]) and under 5.00 against Human KLK1.
Turning to `Cc1cc(C(=O)NCc2ccc(CN)cc2)c(C)n1Cc1csc(-c2ccccn2)n1` [Example 36, 2,5-Dimethyl-1-(2-pyridin-2-yl-thiazol-4-ylmethyl)-1H-pyrrole-3-carboxylic acid 4-aminomethyl-benzylamide], the pIC50 at Human plasma kallikrein (setting [1]) is 6.69; against Human KLK1 it was under 5.00.
Consider `Cc1cc(C(=O)NCc2ccc(CN)cc2)c(C)n1Cc1cc(-c2cccnc2)cs1` [Example 13, 2,5-Dimethyl-1-(4-pyridin-3-yl-thiophen-2-ylmethyl)-1H-pyrrole-3-carboxylic acid 4-aminomethyl-benzylamide], for which the pIC50 on Human plasma kallikrein (setting [1]) is 5.62; against Human KLK1 it was under 5.00.
As to `Cc1cnn(Cc2ccc(Cn3c(C)cc(C(=O)NCc4ccc(CN)cc4C)c3C)cc2)c1` [Example 97, 2,5-Dimethyl-1-[4-(4-methyl-pyrazol-1-ylmethyl)-benzyl]-1H-pyrrole-3-carboxylic acid 4-aminomethyl-2-methyl-benzylamide], the values for the pIC50 at Human plasma kallikrein (setting [1]) and against Human KLK1 were 7.55 and under 5.00, respectively.
Taken in the same sequence, the figures for `Cc1cc(C(=O)NCc2ccc(CN)cc2)c(C)n1Cc1cc(-c2ccccc2)no1` [Example 11, 2,5-Dimethyl-1-(3-phenyl-isoxazol-5-ylmethyl)-1H-pyrrole-3-carboxylic acid 4-aminomethyl-benzylamide] were 5.62 and under 5.00.
As for `Cc1cc(CN)cc(C)c1CNC(=O)c1cc(C)n(Cc2csc(-c3ccccc3)n2)c1C` [Example 3, 2,5-Dimethyl-1-(2-phenyl-thiazol-4-ylmethyl)-1H-pyrrole-3-carboxylic acid 4-aminomethyl-2,6-dimethyl-benzylamide], the pIC50 at Human plasma kallikrein (setting [1]) was 8.22; against Human KLK1 it was under 5.00.
`Cc1cc(C(=O)NCc2ccc(CN)nc2)c(C)n1Cc1csc(-c2cccc(F)c2)n1` [Example 44, 1-[2-(3-Fluoro-phenyl)-thiazol-4-ylmethyl]-2,5-dimethyl-1H-pyrrole-3-carboxylic acid (6-aminomethyl-pyridin-3-ylmethyl)-amide]: the pIC50 was 6.45 at Human plasma kallikrein (setting [1]) and under 5.00 at Human KLK1.
For `Cc1cc(C(=O)NCc2ccc(CN)cc2)c(C)n1Cc1ccc(Cn2ccccc2=O)cc1` [Example 90, 2,5-Dimethyl-1-[4-(2-oxo-2H-pyridin-1-ylmethyl)-benzyl]-1H-pyrrole-3-carboxylic acid 4-aminomethyl-benzylamide], the pIC50 is 6.94 at Human plasma kallikrein and under 5.00 against Human KLK1.
On to `Cc1cc(C)n(Cc2ccc(Cn3cc(C(=O)NCc4ccc(CN)cc4)cn3)cc2)n1` [Example 86, 1-[4-(3,5-Dimethyl-pyrazol-1-ylmethyl)-benzyl]-1H-pyrazole-4-carboxylic acid 4-aminomethyl-benzylamide], for which the pIC50 was 8.15 at Human plasma kallikrein (setting [1]) and under 5.00 at Human KLK1.
Consider `Cc1cnn(Cc2ccc(Cn3ncc(C(=O)NCc4c(C)cc(CN)cc4C)c3C)cc2)c1` [Example 115, 5-Methyl-1-[4-(4-methyl-pyrazol-1-ylmethyl)-benzyl]-1H-pyrazole-4-carboxylic acid 4-aminomethyl-2,6-dimethyl-benzylamide], for which the values for the pIC50 at Human plasma kallikrein (setting [1]) and on Human KLK1 were 8.10 and under 5.00, respectively.
As for `CCOc1cccc(Cn2c(C)cc(C(=O)NCc3ccc(CN)cc3)c2C)c1` [Example 58, 1-(3-Ethoxy-benzyl)-2,5-dimethyl-1H-pyrrole-3-carboxylic acid 4-aminomethyl-benzylamide], the pIC50 at Human plasma kallikrein (setting [1]) is 5.31; at Human KLK1, under 5.00.
Turning to `CCn1c(C(=O)NCc2ccc(C3(N)CC3)cc2)cc(C)c1Cc1ccc(Cn2ccccc2=O)cc1` [Example 93, 1-Ethyl-4-methyl-5-[4-(2-oxo-2H-pyridin-1-ylmethyl)-benzyl]-1H-pyrrole-2-carboxylic acid 4-(1-amino-cyclopropyl)-benzylamide], the pIC50 is 5.55 at Human plasma kallikrein (setting [1]) and under 5.00 at Human KLK1.
For `NCc1ccc(CNC(=O)c2cnn(Cc3ccc(C(=O)N4CCCCC4)cc3)c2)cc1` [Example 87, 1-[4-(Piperidine-1-carbonyl)-benzyl]-1H-pyrazole-4-carboxylic acid 4-aminomethyl-benzylamide], the pIC50 was 5.26 on Human plasma kallikrein (setting [1]) and under 5.00 against Human KLK1.
The like results for `CCn1c(C(=O)NCc2ccc(CN)cc2C)cc(C)c1Cc1ccc(Cn2cc(C)cn2)cc1` [Example 99, 1-Ethyl-4-methyl-5-[4-(4-methyl-pyrazol-1-ylmethyl)-benzyl]-1H-pyrrole-2-carboxylic acid 4-aminomethyl-2-methyl-benzylamide] were, in that order, 7.42 and under 5.00.
Consider `Cc1cc(C(=O)NCc2ccc(CN)cc2)c(C)n1Cc1csc(-c2ccc(Cl)cc2)n1` [Example 28, 2,5-Dimethyl-1-[2-(4-chlorophenyl)-thiazol-4-ylmethyl]-1H-pyrrole-3-carboxylic acid 4-aminomethyl-benzylamide], for which the pIC50 is 5.88 at Human plasma kallikrein (setting [1]) and under 5.00 against Human KLK1.
In the case of `Cc1cc(C(=O)NCc2ccc(CN)cc2)c(C)n1Cc1cccc(-c2cccnc2)c1` [Example 71, 2,5-Dimethyl-1-(3-pyridin-3-yl-benzyl)-1H-pyrrole-3-carboxylic acid 4-aminomethyl-benzylamide], the values for the pIC50 on Human plasma kallikrein (setting [1]) and at Human KLK1 were 6.15 and under 5.00, respectively.
`Cc1cc(C(=O)NCc2ccc(CN)cc2)c(C)n1Cc1nc2ccccc2s1` [Example 12, 1-Benzothiazol-2-ylmethyl-2,5-dimethyl-1H-pyrrole-3-carboxylic acid 4-aminomethyl-benzylamide]: the pIC50 at Human plasma kallikrein (setting [1]) was 5.29; against Human KLK1, under 5.00.
With `CC(C)NC(=O)c1ccc(Cn2cc(C(=O)NCc3ccc(CN)cc3)cn2)cc1` [Example 79, 1-(4-Isopropylcarbamoyl-benzyl)-1H-pyrazole-4-carboxylic acid 4-aminomethyl-benzylamide], the results for the pIC50 at Human plasma kallikrein (setting [1]) and at Human KLK1 were 5.26 and under 5.00, respectively.
Take `CCn1c(C(=O)NCc2ccc(CN)cc2)cc(C)c1Cc1ccc(Cn2ccccc2=O)cc1` [Example 122, 1-Ethyl-4-methyl-5-[4-(2-oxo-2H-pyridin-1-ylmethyl)-benzyl]-1H-pyrrole-2-carboxylic acid 4-aminomethyl-benzylamide]: the pIC50 was 6.82 at Human plasma kallikrein (setting [1]) and under 5.00 on Human KLK1.
For the molecule `Cc1cc(C(=O)NCc2ccc(CN)cc2)n(C)c1Cc1ccccc1` [Example 75, 5-Benzyl-1,4-dimethyl-1H-pyrrole-2-carboxylic acid 4-aminomethyl-benzylamide], the figures for the pIC50 on Human plasma kallikrein (setting [1]) and on Human KLK1 were 5.35 and under 5.00, respectively.
For `Cc1cc(C(=O)NCc2ccc(CN)cc2)c(C)n1Cc1cccc(CN)c1` [Example 66, 1-(3-Aminomethyl-benzyl)-2,5-dimethyl-1H-pyrrole-3-carboxylic acid 4-aminomethyl-benzylamide], the pIC50 on Human plasma kallikrein (setting [1]) is 5.27; against Human KLK1, 5.37.
Taken in the same sequence, the figures for `Cc1cnn(Cc2ccc(Cn3cc(C(=O)NCc4ccc(C5(N)CC5)cc4)nn3)cc2)c1` [Example 110, 1-[4-(4-Methyl-pyrazol-1-ylmethyl)-benzyl]-1H-[1,2,3]triazole-4-carboxylic acid 4-(1-amino-cyclopropyl)-benzylamide] were 5.59 and under 5.00.
On to `Cc1cc(C(=O)NCc2ccc(C3(N)CC3)cc2)c(C)n1Cc1csc(-c2ccccc2)n1` [Example 4, 2,5-Dimethyl-1-(2-phenyl-thiazol-4-ylmethyl)-1H-pyrrole-3-carboxylic acid 4-(1-amino-cyclopropyl)-benzylamide], for which the pIC50 on Human plasma kallikrein (setting [1]) was 6.92; against Human KLK1 it was under 5.00.
The like results for `Cc1cc(C(=O)NCc2ccc(CN)cc2)c(C)n1Cc1cccc(-c2cccnc2)n1` [Example 17, 1-[2,3′]Bipyridinyl-6-ylmethyl-2,5-dimethyl-1H-pyrrole-3-carboxylic acid 4-aminomethyl-benzylamide] were, in that order, 6.31 and under 5.00.
Taken in the same sequence, the figures for `COc1cc(CN)ccc1CNC(=O)c1cc(C)n(Cc2csc(-c3ccccc3)n2)c1C` [Example 54, 2,5-Dimethyl-1-(2-phenyl-thiazol-4-ylmethyl)-1H-pyrrole-3-carboxylic acid 4-aminomethyl-2-methoxy-benzylamide] were 7.52 and under 5.00.
